# Values quoted from earlier work, collected in patent US9662414B2, “Dressing system” (Edixomed Limited, priority 2013, dated 2017).
# Conditions: healthy 70 kg-adult
row,SMILES,generally accepted safe dosage for topical anaesthesia
1,COC(=O)[C@H]1[C@@H](OC(=O)c2ccccc2)C[C@@H]2CC[C@H]1N2C [cocaine],200 mg
2,CCCCNc1ccc(C(=O)OCCN(C)C)cc1 [tetracaine],50 mg
3,CCN(CC)CC(=O)Nc1c(C)cccc1C [lidocaine],750 mg
